Experimental data: patent publication US6469010B1, “Medicament for the alleviation or treatment of symptom derived from the ischemic disease and compound useful thereof” (Suntory Limited, priority 1995, dated 2002)

Columns and labels:
[1] = biological target: T1, Dopamine D2 receptor (Rattus norvegicus, UniProt P61169); test: Dopamine D2 receptor blocking action ([3H]raclopride binding, striatum membrane fraction); set-up: species or system Wister male rats; conditions: 1.0 nM [3H]raclopride, 25° C., one hour
T1 construct: membrane fraction prepared from the striatum of Wister male rats; from tissue; host or cells: rat striatum membrane fraction
Description: Dopamine D2 Receptor Blocking Action
57 μl of the membrane fraction prepared from the striatum of Wister male rats,(6 weeks old) was incubated in a buffer at 25° C. for one hour along with the compound and 1.0 nM [^3H) raclopride. A GF/C glass filter (0.1% polyethylene imine treatment) was used for separation of the B and F, then the radioactivity was measured by a beta plate and the effect of the compound was evaluated.

[2] = test system: T-type Ca2+ channel; test: T-type calcium channel inhibiting action (whole-cell patch clamp, hippocampal CA1 pyramidal cells); format: cell-based, Wistar rats; conditions: rat hippocampal CA1 pyramidal cells; suppression of peak current after one minute of application
Description: T-Type Calcium Channel Inhibiting Action
The hippocampal CA1 pyramidal cells were isolated from Wistar rats (female, 1 week old) in accordance with the method of Takahashi et al. K. Takahashi et al.; J Pharmacol. Exp; Ther., 256, 169 (1991)] and the T-type calcium current under conditions of a fixed membrane potential was measured using the whole-cell configuration of the pach clamp technique. The effects of the compounds were evaluated from the rate of suppression of the peak current after one minute of application using the concentration clamp method.

[3] = test system: DBA/2N mice; test: Audiogenic seizure suppressing action; format: in vivo; conditions: Mus musculus, ip, 20 min; compound 10 mg/kg, i.p.; audio stimulus after 20 minutes; suppression of average seizure score; read-out: Antiseizure action (suppression rate %)
Description: Audiogenic Seizure Suppressing Action
The audiogenic seizure suppressing action of the compounds was evaluated by the method of Sarro et al. [G. B. De Sarro et al.; Br. J. Pharmacol., 93, 247 (1988)]. That is, DBA/2N mice (male, 3 weeks) were administered with the compound dissolved in 10% 2-hydroxypropyl-β-cyclodextrin intraperitoneally. After 20 minutes, a supersonic washer was used to apply audio stimulus of at least 90 dB for one minute. The wild running (WR), clonic seizures (clonus), tonic seizures (tonus), and respiratory arrest (RA) were evaluated. The seizure suppressing action was evaluated from the rate or suppression of the average value of the seizure score found from 0=no response, 1=WR, 2=clonus, 3=tonus, and 4=RA.

[4] = Acute toxicity test; conditions: male, mouse, in vivo, iv, ddY mice, death rate up to 24 hours after administration
Description: Medicine was intravenously administered to ddY mice (male, 6 weeks old). The 50 percent lethal dosage LD50 of the acute toxicity was calculated by an ordinary method from the death rate up to 24 hours after administration.

[5] = test system: Na+ channel; test: Veratridine-induced sodium channel activity inhibiting action (membrane potential of synaptosomes, Rhodamine 6G); format: biochemical, Wistar rats; conditions: 0.1 μM of compound; rat brain synaptosomes, veratridine-induced depolarization
Description: Veratridine-induced Sodium Channel Activity Inhibiting Action
The membrane potential of the synaptosomes prepared from the brain membrane of Wistar rats (male, 10 to 12 weeks old) was measured by the method of Aiuchi et al. [T. Aiuchi et al: Biochimi. Biophys. Acta.

T1 sequence (P61169 whole entry): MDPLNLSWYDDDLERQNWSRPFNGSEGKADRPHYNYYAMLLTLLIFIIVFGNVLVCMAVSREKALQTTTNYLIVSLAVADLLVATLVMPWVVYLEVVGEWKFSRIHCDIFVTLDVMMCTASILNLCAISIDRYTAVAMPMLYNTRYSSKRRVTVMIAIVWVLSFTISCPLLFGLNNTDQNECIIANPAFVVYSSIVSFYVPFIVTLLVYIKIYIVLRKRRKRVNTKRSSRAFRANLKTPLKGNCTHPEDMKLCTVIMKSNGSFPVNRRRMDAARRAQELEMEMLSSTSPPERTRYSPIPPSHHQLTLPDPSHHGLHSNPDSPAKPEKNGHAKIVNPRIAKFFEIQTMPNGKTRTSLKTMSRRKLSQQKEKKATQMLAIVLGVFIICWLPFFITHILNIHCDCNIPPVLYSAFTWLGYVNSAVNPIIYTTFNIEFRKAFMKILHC

`c1ccc(Oc2ccc(C3CCN(C[C@@H]4C[C@H]4c4ccccc4)CC3)cc2)cc1` (relative stereo) [Compound 26, 4-(phenoxyphenyl)-1-[trans-(2-phenyl)cyclopropylmethyl]piperidine] showed an IC50 [1] of 3.37 µM, an IC50 [2] of 2.8 µM and an inhibition in vivo at 10 mg/kg [3] of 78%. The LD50 at 24 h [4] was 32.9 mg/kg and the “Antiveratridine action (inhibiting rate %)” value [5] was 36.5%.

`C(=C\c1ccccc1)/CN1CCC(c2ccc(Oc3ccccc3)cc2)CC1` [Compound 21, (E)-4-(4-phenoxyphenyl)-1-(3-phenyl-2-propenyl)piperidine] gave an IC50 [1] of 2.68 µM, an IC50 [2] of 0.8 µM and an inhibition in vivo at 10 mg/kg [3] of 77.3%. The LD50 at 24 h [4] was 40.9 mg/kg and the “Antiveratridine action (inhibiting rate %)” value [5] was 20.3%.

`Fc1ccc(Cc2ccc(C3CCN(C/C=C/c4ccccc4)CC3)cc2)cc1` [Compound 32, (E)-4-[4-(4-fluorophenyl)methylphenyl]-1-(3-phenyl-2-propenyl)piperidine] gave an IC50 [1] of 3.36 µM, an IC50 [2] of 0.6 µM and an inhibition in vivo at 10 mg/kg [3] of 94%. For the same compound, the LD50 at 24 h [4] was 32.9 mg/kg and the “Antiveratridine action (inhibiting rate %)” value [5] was 33.3%.

`Fc1ccc(Cc2ccc(N3CCN(C/C=C/c4ccccc4)CC3)cc2)cc1` [Compound 47] showed an IC50 [1] of 3.96 µM, an IC50 [2] of 2.7 µM and an inhibition in vivo at 10 mg/kg [3] of 64.1%. The LD50 at 24 h [4] was 43.2 mg/kg and the “Antiveratridine action (inhibiting rate %)” value [5] was 22.9%.

For `COc1cc(/C=C/CN2CCN(c3ccc(Cc4ccc(F)cc4)cc3)CC2)ccc1O` [Compound 49], the IC50 [1] was 0.987 µM, the inhibition in vivo at 10 mg/kg [3] was 60% and the “Antiveratridine action (inhibiting rate %)” value [5] was 17.3%.

Compound `Fc1ccc(/C=C/CN2CCN(c3ccc(Cc4ccc(F)cc4)cc3)CC2)cc1` [Compound 50, (E)-1-[4-(4-fluorophenyl)methylphenyl]-4-[3-(4-fluorophenyl)-2-propenyl]-piperazine] has an IC50 [2] of 4.2 µM and an inhibition in vivo at 10 mg/kg [3] of 72%.

In the case of `c1ccc(Oc2ccc(C3CCN(CC4(c5ccccc5)OCCO4)CC3)cc2)cc1` [Compound 73, 2-[4-(4-phenoxyphenyl)piperidin-1-yl]methyl-2-phenyl-1,3-dioxolane], the IC50 [2] is reported as 4.6 µM, the inhibition in vivo at 10 mg/kg [3] is reported as 52.2% and the “Antiveratridine action (inhibiting rate %)” value [5] is reported as 16.1%.

In the case of `ON=C(CN1CCC(c2ccc(Oc3ccccc3)cc2)CC1)c1ccccc1` [Compound 74, 4-(4-phenoxyphenyl)-1-(2-phenyl-2-hydroxyimino)ethylpiperidine], the inhibition in vivo at 10 mg/kg [3] is reported as 44.4% and the “Antiveratridine action (inhibiting rate %)” value [5] is reported as 14.6%.

For `COc1ccc(Cc2ccc(C3CCN(C/C=C/c4ccccc4)CC3)cc2)cc1` [Compound 75, 4-[4-(4-methoxyphenyl)methylphenyl]-(E)-1-(3-phenyl-2-propenyl)piperidine], the IC50 [2] was 1.4 µM, the inhibition in vivo at 10 mg/kg [3] was 99% and the “Antiveratridine action (inhibiting rate %)” value [5] was 55.2%.

In the case of `OC(CN1CCC(c2ccc(Oc3ccccc3)cc2)CC1)c1ccccc1` (centres unmarked) [Compound 77, 1-(2-hydroxy-2-phenyl)-ethyl-4-(4-phenoxyphenyl)piperidine], the inhibition in vivo at 10 mg/kg [3] is reported as 85.7% and the “Antiveratridine action (inhibiting rate %)” value [5] is reported as 31.1%.

For `OC(CN1CCC(c2ccc(Oc3ccccc3)cc2)CC1)c1ccc(Cl)cc1` (centres unmarked) [Compound 78, 1-[2-(4-chlorophenyl)-2-hydroxy]ethyl-4-(4-phenoxyphenyl)piperidine], the inhibition in vivo at 10 mg/kg [3] was 66% and the “Antiveratridine action (inhibiting rate %)” value [5] was 44.4%.

With `OC(CN1CCC(c2ccc(Cc3ccc(F)cc3)cc2)CC1)c1ccccc1` (centres unmarked) [Compound 79, 4-[4-(4-fluorophenyl)methylphenyl]-1-(2-hydroxy-2-phenyl)ethylpiperidine] the IC50 [2] was 3.1 µM, the inhibition in vivo at 10 mg/kg [3] was 79.8% and the “Antiveratridine action (inhibiting rate %)” value [5] was 37.1%.

For `OC(COc1ccccc1)CN1CCC(c2ccc(Oc3ccccc3)cc2)CC1` (centres unmarked) [Compound 80, 1-(2-hydroxy-3-phenoxy)propyl-4-(4-phenoxyphenyl)piperidine], the IC50 [2] was 1.9 µM, the inhibition in vivo at 10 mg/kg [3] was 66.3% and the “Antiveratridine action (inhibiting rate %)” value [5] was 49.7%.

For `OC(COc1ccccc1)CN1CCC(c2ccc(Cc3ccc(F)cc3)cc2)CC1` (centres unmarked) [Compound 81, 4-[4-(4-fluorophenyl)methylphenyl]-1-(2-hydroxy-3-phenoxy)propylpiperidine], the inhibition in vivo at 10 mg/kg [3] was 61% and the “Antiveratridine action (inhibiting rate %)” value [5] was 24.1%.

In the case of `O=C(CN1CCN(c2ccc(Cc3ccc(F)cc3)cc2)CC1)c1ccccc1` [Compound 82, 1-[4-(4-fluorophenyl)methylphenyl]-4-(2-phenyl-2-oxo)ethylpiperazine], the inhibition in vivo at 10 mg/kg [3] is reported as 71.9% and the “Antiveratridine action (inhibiting rate %)” value [5] is reported as 16.9%.
